System: 415267-285-R-J2-PDC complex spheroid viability
Experiment: Anticancer human tumor 415267-285-R-J2-PDC patient-derived breast carcinoma cell line growth inhibition [POLQ]
Conditions: for IC50: curve of first compound; for viability, T/C: stronger effect = lower value
Procedure, shortened: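 Growth inhibition in 3D: complex spheroids (tumor PDC, HUVEC, MSC) treated with POLQ inhibitor combinations; where Cmax unknown, highest tested concentration 10 microM, except SN-38 at 1 microM.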
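Note: spheroids exposed to compounds for one week before readout.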
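Throughout, for viability, T/C: luminescence used as stand-in measure of viable cells; 100% = DMSO vehicle control viability.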

## CC(=O)O[C@H]1C(=O)[C@@]2(C)[C@H]([C@H](OC(=O)c3ccccc3)[C@]3(O)C[C@H](OC(=O)[C@H](O)[C@@H](NC(=O)c4ccccc4)c4ccccc4)C(C)=C1C3(C)C)[C@]1(OC(C)=O)CO[C@@H]1C[C@@H]2O + Nc1ccc(C#CCN(C(=O)Cc2ncc(C(F)(F)F)cc2C(F)(F)F)c2ccc(F)cc2)nn1
Second compound 0.0316 µM
  IC50: < 0.00949 µM
Second compound 0.1 µM
  IC50: < 0.00949 µM
Second compound 0.316 µM
  IC50: < 0.00949 µM
Second compound 1 µM
  IC50: < 0.00949 µM
Second compound 3.16 µM
  IC50: < 0.00949 µM
Second compound 10 µM
  IC50: < 0.00949 µM
Second compound 0.0316 µM, first compound 0.00949 µM
  viability, T/C: 16.4%
Second compound 0.0316 µM, first compound 0.03 µM
  viability, T/C: 11.2%
Second compound 0.0316 µM, first compound 0.0949 µM
  viability, T/C: 7.8%
Second compound 0.0316 µM, first compound 0.3 µM
  viability, T/C: 12.3%
Second compound 0.0316 µM, first compound 0.949 µM
  viability, T/C: 7.65%
Second compound 0.0316 µM, first compound 3 µM
  viability, T/C: 9.67%
Second compound 0.1 µM, first compound 0.00949 µM
  viability, T/C: 28.2%
Second compound 0.1 µM, first compound 0.03 µM
  viability, T/C: 10.1%
Second compound 0.1 µM, first compound 0.0949 µM
  viability, T/C: 7.84%
Second compound 0.1 µM, first compound 0.3 µM
  viability, T/C: 8.82%
Second compound 0.1 µM, first compound 0.949 µM
  viability, T/C: 5.94%
Second compound 0.1 µM, first compound 3 µM
  viability, T/C: 7.04%
Second compound 0.316 µM, first compound 0.00949 µM
  viability, T/C: 25.4%
Second compound 0.316 µM, first compound 0.03 µM
  viability, T/C: 10.4%
Second compound 0.316 µM, first compound 0.0949 µM
  viability, T/C: 8.11%
Second compound 0.316 µM, first compound 0.3 µM
  viability, T/C: 6.83%
Second compound 0.316 µM, first compound 0.949 µM
  viability, T/C: 6.61%
Second compound 0.316 µM, first compound 3 µM
  viability, T/C: 9.16%
Second compound 1 µM, first compound 0.00949 µM
  viability, T/C: 17.4%
Second compound 1 µM, first compound 0.03 µM
  viability, T/C: 9.17%
Second compound 1 µM, first compound 0.0949 µM
  viability, T/C: 6.64%
Second compound 1 µM, first compound 0.3 µM
  viability, T/C: 8.77%
Second compound 1 µM, first compound 0.949 µM
  viability, T/C: 7.65%
Second compound 1 µM, first compound 3 µM
  viability, T/C: 7.96%
Second compound 3.16 µM, first compound 0.00949 µM
  viability, T/C: 14.3%
Second compound 3.16 µM, first compound 0.03 µM
  viability, T/C: 10%
Second compound 3.16 µM, first compound 0.0949 µM
  viability, T/C: 8.75%
Second compound 3.16 µM, first compound 0.3 µM
  viability, T/C: 6.53%
Second compound 3.16 µM, first compound 0.949 µM
  viability, T/C: 7.79%
Second compound 3.16 µM, first compound 3 µM
  viability, T/C: 7.72%
Second compound 10 µM, first compound 0.00949 µM
  viability, T/C: 13.3%
Second compound 10 µM, first compound 0.03 µM
  viability, T/C: 9.57%
Second compound 10 µM, first compound 0.0949 µM
  viability, T/C: 8.39%
Second compound 10 µM, first compound 0.3 µM
  viability, T/C: 9.61%
Second compound 10 µM, first compound 0.949 µM
  viability, T/C: 8.58%
Second compound 10 µM, first compound 3 µM
  viability, T/C: 8.25%

## CC(C)n1c(=O)n(C)c2cnc3cc(F)c(-c4ccc(OCCCN5CCCCC5)nc4)cc3c21 + COC1C(OC(N)=O)C(O)C(Oc2ccc3c(O)c(NC(=O)c4ccc(O)c(CC=C(C)C)c4)c(=O)oc3c2C)OC1(C)C
Second compound 0.0316 µM
  IC50: > 10 µM
Second compound 0.1 µM
  IC50: > 10 µM
Second compound 0.316 µM
  IC50: > 10 µM
Second compound 1 µM
  IC50: > 10 µM
Second compound 3.16 µM
  IC50: > 10 µM
Second compound 10 µM
  IC50: > 10 µM
Second compound 0.0316 µM, first compound 0.0316 µM
  viability, T/C: 97.5%
Second compound 0.0316 µM, first compound 0.1 µM
  viability, T/C: 97.6%
Second compound 0.0316 µM, first compound 0.316 µM
  viability, T/C: 95.6%
Second compound 0.0316 µM, first compound 1 µM
  viability, T/C: 94.1%
Second compound 0.0316 µM, first compound 3.16 µM
  viability, T/C: 101%
Second compound 0.0316 µM, first compound 10 µM
  viability, T/C: 99.2%
Second compound 0.1 µM, first compound 0.0316 µM
  viability, T/C: 89.8%
Second compound 0.1 µM, first compound 0.1 µM
  viability, T/C: 93.6%
Second compound 0.1 µM, first compound 0.316 µM
  viability, T/C: 107%
Second compound 0.1 µM, first compound 1 µM
  viability, T/C: 104%
Second compound 0.1 µM, first compound 3.16 µM
  viability, T/C: 103%
Second compound 0.1 µM, first compound 10 µM
  viability, T/C: 95.3%
Second compound 0.316 µM, first compound 0.0316 µM
  viability, T/C: 96.8%
Second compound 0.316 µM, first compound 0.1 µM
  viability, T/C: 95.8%
Second compound 0.316 µM, first compound 0.316 µM
  viability, T/C: 104%
Second compound 0.316 µM, first compound 1 µM
  viability, T/C: 110%
Second compound 0.316 µM, first compound 3.16 µM
  viability, T/C: 112%
Second compound 0.316 µM, first compound 10 µM
  viability, T/C: 89.5%
Second compound 1 µM, first compound 0.0316 µM
  viability, T/C: 99.6%
Second compound 1 µM, first compound 0.1 µM
  viability, T/C: 103%
Second compound 1 µM, first compound 0.316 µM
  viability, T/C: 91.2%
Second compound 1 µM, first compound 1 µM
  viability, T/C: 102%
Second compound 1 µM, first compound 3.16 µM
  viability, T/C: 95.5%
Second compound 1 µM, first compound 10 µM
  viability, T/C: 97%
Second compound 3.16 µM, first compound 0.0316 µM
  viability, T/C: 107%
Second compound 3.16 µM, first compound 0.1 µM
  viability, T/C: 91.4%
Second compound 3.16 µM, first compound 0.316 µM
  viability, T/C: 89%
Second compound 3.16 µM, first compound 1 µM
  viability, T/C: 98.2%
Second compound 3.16 µM, first compound 3.16 µM
  viability, T/C: 107%
Second compound 3.16 µM, first compound 10 µM
  viability, T/C: 98.8%
Second compound 10 µM, first compound 0.0316 µM
  viability, T/C: 101%
Second compound 10 µM, first compound 0.1 µM
  viability, T/C: 99.5%
Second compound 10 µM, first compound 0.316 µM
  viability, T/C: 93.5%
Second compound 10 µM, first compound 1 µM
  viability, T/C: 114%
Second compound 10 µM, first compound 3.16 µM
  viability, T/C: 98.4%
Second compound 10 µM, first compound 10 µM
  viability, T/C: 82.5%
